Test results reported in PubChem BioAssay AID2060489 (Molecular Pharmacology Branch, DTP, NCI, 2025).

System: 922993-354-T-J3-PDC complex spheroids, viability
Test: Anticancer human tumor 922993-354-T-J3-PDC patient-derived endometrial carcinoma cell line growth inhibition [GQUAD]
Settings: for IC50: curve of first compound; for viability, T/C: stronger effect = lower value; active = viability on the fitted dose curve at most 10% of control; inactive = the rest
Summary of the method: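 Multi-cell-type spheroids of tumor cells with HUVEC and mesenchymal stem cells, treated with drug combinations. Concentrations descend in half-log steps from near clinical Cmax, or from 10 microM where Cmax is unknown; viability read-out.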

[1] = second compound 0.0316 µM, first compound 0.0316 µM
[2] = second compound 0.0316 µM, first compound 0.1 µM
[3] = second compound 0.0316 µM, first compound 0.316 µM
[4] = second compound 0.0316 µM, first compound 1 µM
[5] = second compound 0.0316 µM, first compound 3.16 µM
[6] = second compound 0.0316 µM, first compound 10 µM
[7] = second compound 0.1 µM, first compound 0.0316 µM
[8] = second compound 0.1 µM, first compound 0.1 µM
[9] = second compound 0.1 µM, first compound 0.316 µM
[10] = second compound 0.1 µM, first compound 1 µM
[11] = second compound 0.1 µM, first compound 3.16 µM
[12] = second compound 0.1 µM, first compound 10 µM
[13] = second compound 0.316 µM, first compound 0.0316 µM
[14] = second compound 0.316 µM, first compound 0.1 µM
[15] = second compound 0.316 µM, first compound 0.316 µM
[16] = second compound 0.316 µM, first compound 1 µM
[17] = second compound 0.316 µM, first compound 3.16 µM
[18] = second compound 0.316 µM, first compound 10 µM
[19] = second compound 1 µM, first compound 0.0316 µM
[20] = second compound 1 µM, first compound 0.1 µM
[21] = second compound 1 µM, first compound 0.316 µM
[22] = second compound 1 µM, first compound 1 µM
[23] = second compound 1 µM, first compound 3.16 µM
[24] = second compound 1 µM, first compound 10 µM
[25] = second compound 3.16 µM, first compound 0.0316 µM
[26] = second compound 3.16 µM, first compound 0.1 µM
[27] = second compound 3.16 µM, first compound 0.316 µM
[28] = second compound 3.16 µM, first compound 1 µM
[29] = second compound 3.16 µM, first compound 3.16 µM
[30] = second compound 3.16 µM, first compound 10 µM
[31] = second compound 10 µM, first compound 0.0316 µM
[32] = second compound 10 µM, first compound 0.1 µM
[33] = second compound 10 µM, first compound 0.316 µM
[34] = second compound 10 µM, first compound 1 µM
[35] = second compound 10 µM, first compound 3.16 µM
[36] = second compound 10 µM, first compound 10 µM
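Note: spheroids exposed to compounds for seven days.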
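Throughout, for viability, T/C: 100% = DMSO vehicle control viability.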

C=CCn1c(=O)c2cnc(Nc3ccc(N4CCN(C)CC4)cc3)nc2n1-c1cccc(C(C)(C)O)n1 + CN(C)c1ccc(Nc2c3ccc(NC(=O)CCN4CCCC4)cc3nc3cc(NC(=O)CCN4CCCC4)ccc23)cc1
inactive: viability, T/C [1] 103% | viability, T/C [2] 80.9% | viability, T/C [3] 87.4% | viability, T/C [4] 74.5% | viability, T/C [5] 67.7% | viability, T/C [6] 12.4% | viability, T/C [7] 95.3% | viability, T/C [8] 87.1% | viability, T/C [9] 88% | viability, T/C [10] 88.6% | viability, T/C [11] 61.8% | viability, T/C [12] 13.9% | viability, T/C [13] 93.6% | viability, T/C [14] 101% | viability, T/C [15] 73.2% | viability, T/C [16] 81.8% | viability, T/C [17] 65.6% | viability, T/C [18] 16.9% | viability, T/C [19] 110% | viability, T/C [20] 121% | viability, T/C [21] 95.3% | viability, T/C [22] 96.5% | viability, T/C [23] 79.1% | viability, T/C [24] 17% | viability, T/C [25] 100% | viability, T/C [26] 85.5% | viability, T/C [27] 113% | viability, T/C [28] 104% | viability, T/C [29] 74.6% | viability, T/C [30] 16.6% | viability, T/C [31] 111% | viability, T/C [32] 109% | viability, T/C [33] 108% | viability, T/C [34] 110% | viability, T/C [35] 87.2% | viability, T/C [36] 28.2%
5.26 µM: IC50 (second compound 1 µM)
5.16 µM: IC50 (second compound 3.16 µM)
6.53 µM: IC50 (second compound 10 µM)
4.34 µM: IC50 (second compound 0.316 µM)
4.2 µM: IC50 (second compound 0.0316 µM) | IC50 (second compound 0.1 µM)

COc1ncnc(C2CC2)c1-c1ncc2cnn(Cc3ccc(-c4nc(C(F)(F)F)cn4C(C)C)cc3)c2n1 + CN(C)c1ccc(Nc2c3ccc(NC(=O)CCN4CCCC4)cc3nc3cc(NC(=O)CCN4CCCC4)ccc23)cc1
inactive: viability, T/C [1] 94.4% | viability, T/C [2] 96.5% | viability, T/C [3] 84% | viability, T/C [4] 72.3% | viability, T/C [5] 63.5% | viability, T/C [6] 87.7% | viability, T/C [7] 86% | viability, T/C [8] 86.7% | viability, T/C [9] 80.9% | viability, T/C [10] 86.6% | viability, T/C [11] 101% | viability, T/C [12] 67.2% | viability, T/C [13] 90.8% | viability, T/C [14] 86% | viability, T/C [15] 74.2% | viability, T/C [16] 81.2% | viability, T/C [17] 90.1% | viability, T/C [18] 74.2% | viability, T/C [19] 73.8% | viability, T/C [20] 86.4% | viability, T/C [21] 93.6% | viability, T/C [22] 74.3% | viability, T/C [23] 90.4% | viability, T/C [24] 76.8% | viability, T/C [25] 98.3% | viability, T/C [26] 109% | viability, T/C [27] 108% | viability, T/C [28] 98.3% | viability, T/C [29] 108% | viability, T/C [30] 76.6% | viability, T/C [31] 115% | viability, T/C [32] 116% | viability, T/C [33] 86.6% | viability, T/C [34] 107% | viability, T/C [35] 101% | viability, T/C [36] 62.9%
> 10 µM: IC50 (second compound 0.0316 µM) | IC50 (second compound 0.1 µM) | IC50 (second compound 0.316 µM) | IC50 (second compound 1 µM) | IC50 (second compound 3.16 µM) | IC50 (second compound 10 µM)

CC(C)n1c(=O)n(C)c2cnc3cc(F)c(-c4ccc(OCCCN5CCCCC5)nc4)cc3c21 + Cc1[nH]c2ccc(F)cc2c1-c1nc2c3cccnc3c3ncccc3c2[nH]1
inactive: viability, T/C [1] 110% | viability, T/C [2] 123% | viability, T/C [3] 113% | viability, T/C [4] 91.4% | viability, T/C [5] 77.3% | viability, T/C [6] 71.3% | viability, T/C [7] 116% | viability, T/C [8] 95.3% | viability, T/C [9] 103% | viability, T/C [10] 96.2% | viability, T/C [11] 72.9% | viability, T/C [12] 60.3% | viability, T/C [13] 91.8% | viability, T/C [14] 124% | viability, T/C [15] 115% | viability, T/C [16] 114% | viability, T/C [17] 88.2% | viability, T/C [18] 62.9% | viability, T/C [19] 118% | viability, T/C [20] 83.4% | viability, T/C [21] 131% | viability, T/C [22] 112% | viability, T/C [23] 88.5% | viability, T/C [24] 75.9% | viability, T/C [25] 100% | viability, T/C [26] 89.5% | viability, T/C [27] 91.5% | viability, T/C [28] 95.1% | viability, T/C [29] 84.8% | viability, T/C [30] 80.8% | viability, T/C [31] 98.9% | viability, T/C [32] 93.7% | viability, T/C [33] 94% | viability, T/C [34] 97.4% | viability, T/C [35] 85.5% | viability, T/C [36] 73.8%
> 10 µM: IC50 (second compound 0.0316 µM) | IC50 (second compound 0.1 µM) | IC50 (second compound 0.316 µM) | IC50 (second compound 1 µM) | IC50 (second compound 3.16 µM) | IC50 (second compound 10 µM)
